Assay results reported in ChEMBL document CHEMBL5346923, “Novel pyridinium cationic pleuromutilin analogues overcoming bacterial multidrug resistance” (Eur J Med Chem, 2023).

Legend:
Assay type in all cases: functional
Escherichia coli [1] = assay: Antibacterial activity against Escherichia coli ATCC 25922 assessed as inhibition of bacterial growth measured after 24 hrs by MH broth based assay
Staphylococcus aureus [2] = assay: Antibacterial activity against Staphylococcus aureus ATCC 29213 assessed as inhibition of bacterial growth measured after 24 hrs by MH broth based assay
Staphylococcus aureus [3] = assay: Antibacterial activity against methicillin-resistant Staphylococcus aureus ATCC 43300 assessed as inhibition of bacterial growth measured after 24 hrs by MH broth based assay
Escherichia coli [4] = assay: Antibacterial activity against Escherichia coli MG1655 harbouring acrB gene assessed as inhibition of bacterial growth measured after 24 hrs by MH broth based assay
Enterococcus = assay: Antibacterial activity against vancomycin-resistant Enterococcus ATCC 700221 assessed as inhibition of bacterial growth measured after 24 hrs by MH broth based assay
[5] = tested on: Staphylococcus epidermidis; assay: Antibacterial activity against methicillin-resistant Staphylococcus epidermidis ATCC 51625 assessed as inhibition of bacterial growth measured after 24 hrs by MH broth based assay
Bacillus subtilis = assay: Antibacterial activity against Bacillus subtilis ATCC 6633 assessed as inhibition of bacterial growth measured after 24 hrs by MH broth based assay
Streptococcus pneumoniae = assay: Antibacterial activity against Streptococcus pneumoniae ATCC 49619 assessed as inhibition of bacterial growth measured after 24 hrs by MH broth based assay
Klebsiella pneumoniae = assay: Antibacterial activity against Klebsiella pneumonia CMCC (B) 46117 assessed as inhibition of bacterial growth measured after 24 hrs by MH broth based assay
Escherichia coli [6] = assay: Antibacterial activity against Escherichia coli MG1655 assessed as inhibition of bacterial growth measured after 24 hrs by MH broth based assay
Proteus = assay: Antibacterial activity against Proteus CMCC (B) 49027 assessed as inhibition of bacterial growth measured after 24 hrs by MH broth based assay

SMILES | MIC (Escherichia coli [1]) [µg/mL] | MIC (Staphylococcus aureus [2]) [µg/mL] | MIC (Staphylococcus aureus [3]) [µg/mL] | MIC (Escherichia coli [4]) [µg/mL] | MIC (Enterococcus) [µg/mL] | MIC [5] [µg/mL] | MIC (Bacillus subtilis) [µg/mL] | MIC (Streptococcus pneumoniae) [µg/mL] | MIC (Klebsiella pneumoniae) [µg/mL] | MIC (Escherichia coli [6]) [µg/mL] | MIC (Proteus) [µg/mL]
C#CC[n+]1ccc(SCC(=O)O[C@@H]2C[C@@](C)(C=C)[C@@H](O)[C@H](C)[C@]34CCC(=O)[C@H]3[C@@]2(C)[C@H](C)CC4)cc1.[I-] | 64 | 0.125 | 0.125 | 0.5 | 16 | 0.031 | 32 | < 0.031 | 8 | 64 | > 64
C=C[C@]1(C)C[C@@H](OC(=O)CSc2cc[n+](CC(=O)NCc3ccccc3C)cc2)[C@]2(C)[C@H](C)CC[C@]3(CCC(=O)[C@H]32)[C@@H](C)[C@@H]1O.[I-] | 64 | 0.5 | 0.5 | 1 | 64 | 1 | 64 | 0.5 | 8 | 32 | 64
C=C[C@]1(C)C[C@@H](OC(=O)CSc2cc[n+](CCCC)cc2)[C@]2(C)[C@H](C)CC[C@]3(CCC(=O)[C@H]32)[C@@H](C)[C@@H]1O.[Br-] | 64 | 0.25 | 0.25 | 1 | 16 | 0.125 | 64 | 0.063 | 32 | 64 | > 64
C=C[C@]1(C)C[C@@H](OC(=O)CSc2cc[n+](CCO)cc2)[C@]2(C)[C@H](C)CC[C@]3(CCC(=O)[C@H]32)[C@@H](C)[C@@H]1O.[I-] | 64 | 1 | 1 | 0.5 | 32 | 1 | 64 | 0.5 | 32 | 64 | 64
C=C[C@]1(C)C[C@@H](OC(=O)CSc2cc[n+](CC#CC)cc2)[C@]2(C)[C@H](C)CC[C@]3(CCC(=O)[C@H]32)[C@@H](C)[C@@H]1O.[I-] | 64 | 0.125 | 0.25 | 1 | 32 | 0.063 | > 64 | < 0.031 | 64 | 64 | > 64
C=C[C@]1(C)C[C@@H](OC(=O)CSc2cc[n+](CCCCCCCCCC(=O)O)cc2)[C@]2(C)[C@H](C)CC[C@]3(CCC(=O)[C@H]32)[C@@H](C)[C@@H]1O.[I-] | > 64 | 4 | 4 | 32 | 64 | 2 | > 64 | 1 | > 64 | > 64 | > 64
C=C[C@]1(C)C[C@@H](OC(=O)CSc2cc[n+](CCCCCCCC(=O)O)cc2)[C@]2(C)[C@H](C)CC[C@]3(CCC(=O)[C@H]32)[C@@H](C)[C@@H]1O.[I-] | > 64 | 8 | 8 | 32 | 64 | 4 | > 64 | 2 | > 64 | > 64 | > 64
C=C[C@]1(C)C[C@@H](OC(=O)CSc2cc[n+](CCCCCCC(=O)O)cc2)[C@]2(C)[C@H](C)CC[C@]3(CCC(=O)[C@H]32)[C@@H](C)[C@@H]1O.[I-] | 64 | 0.5 | 0.5 | 32 | 64 | 2 | 64 | 0.5 | 64 | 64 | 64
C=C[C@]1(C)C[C@@H](OC(=O)CSc2cc[n+](Cc3ccc(OC)cc3)cc2)[C@]2(C)[C@H](C)CC[C@]3(CCC(=O)[C@H]32)[C@@H](C)[C@@H]1O.[I-] | 64 | 0.063 | 0.125 | 0.5 | 4 | 0.031 | 16 | < 0.031 | 4 | 64 | > 64
C=CC[n+]1ccc(SCC(=O)O[C@@H]2C[C@@](C)(C=C)[C@@H](O)[C@H](C)[C@]34CCC(=O)[C@H]3[C@@]2(C)[C@H](C)CC4)cc1.[I-] | 64 | 0.5 | 1 | 1 | 32 | 0.25 | 64 | 0.25 | 64 | 64 | > 64
C=C[C@]1(C)C[C@@H](OC(=O)CSc2cc[n+](CCC)cc2)[C@]2(C)[C@H](C)CC[C@]3(CCC(=O)[C@H]32)[C@@H](C)[C@@H]1O.[I-] | 64 | 0.25 | 0.25 | 0.5 | 16 | 0.125 | 64 | 0.063 | 32 | 64 | 64
C=C[C@]1(C)C[C@@H](OC(=O)CSc2cc[n+](Cc3ccc(-c4ccccc4C#N)cc3)cc2)[C@]2(C)[C@H](C)CC[C@]3(CCC(=O)[C@H]32)[C@@H](C)[C@@H]1O.[I-] | 64 | 1 | 1 | 8 | 32 | 0.125 | 32 | < 0.031 | 32 | 64 | > 64
C=C[C@]1(C)C[C@@H](OC(=O)CSc2cc[n+](CCCCCCCCCCCC)cc2)[C@]2(C)[C@H](C)CC[C@]3(CCC(=O)[C@H]32)[C@@H](C)[C@@H]1O.[I-] | 32 | 8 | 8 | 8 | 16 | 8 | 8 | 4 | 32 | 32 | 64
C=C[C@]1(C)C[C@@H](OC(=O)CSc2cc[n+](CCCC)cc2)[C@]2(C)[C@H](C)CC[C@]3(CCC(=O)[C@H]32)[C@@H](C)[C@@H]1O.[I-] | 64 | 0.25 | 0.25 | 0.5 | 16 | 0.063 | 64 | < 0.031 | 16 | 64 | > 64
C=C[C@]1(C)C[C@@H](OC(=O)CSc2cc[n+](C(C)C)cc2)[C@]2(C)[C@H](C)CC[C@]3(CCC(=O)[C@H]32)[C@@H](C)[C@@H]1O.[I-] | 64 | 0.5 | 1 | 2 | 64 | 2 | 64 | 1 | 64 | 64 | 64
C=C[C@]1(C)C[C@@H](OC(=O)CSc2cc[n+](CC(=O)N3CCOCC3)cc2)[C@]2(C)[C@H](C)CC[C@]3(CCC(=O)[C@H]32)[C@@H](C)[C@@H]1O.[I-] | > 64 | 16 | 16 | 8 | 64 | 8 | > 64 | 4 | > 64 | 64 | > 64
C=C[C@]1(C)C[C@@H](OC(=O)CSc2cc[n+](CC(=O)NC3CCCC3)cc2)[C@]2(C)[C@H](C)CC[C@]3(CCC(=O)[C@H]32)[C@@H](C)[C@@H]1O.[I-] | 64 | 4 | 4 | 8 | 64 | 1 | > 64 | 1 | 64 | 64 | > 64
C=C[C@]1(C)C[C@@H](OC(=O)CSc2cc[n+](CCCCCCCCCC)cc2)[C@]2(C)[C@H](C)CC[C@]3(CCC(=O)[C@H]32)[C@@H](C)[C@@H]1O.[I-] | 16 | 0.25 | 1 | 1 | 4 | 0.5 | 2 | 0.125 | 2 | 16 | 64
